Results from ChEMBL document CHEMBL5338724, “METTL3 from Target Validation to the First Small-Molecule Inhibitors: A Medicinal Chemistry Journey” (J Med Chem, 2023).
Values belong to the compound of their own block, whether it stands above or below them.

How the values were obtained:
[1] = tested on: Kasumi 1; test: Antiproliferative activity against human Kasumi 1 cells assessed as inhibition of cell proliferation incubated for 120 hrs by CellTiter-Glo assay; type: functional, cell-based; details: Kasumi 1, 120 h
[2] = tested on: Caov-3 cell line; test: Antiproliferative activity against human Caov-3 cell line assessed as inhibition of cell proliferation incubated for 120 hrs by CellTiter-Glo assay; type: functional, cell-based; details: Caov-3, 120 h
[3] = target: T1, METTL3/METTL14 (Homo sapiens, UniProt Q86U44); test: Competive inhibition of full length human METTL3/METTL14 expressed in Sf9 cells using single strand RNA 5'-AAGAACCGGACUAAGCU-3' and SAM as substrate incubated for 40 mins by HTRF assay
[4] = target: T1, METTL3/METTL14; test: Inhibition of full-length His-tagged METTL3/full length FLAG-tagged METTL14 (unknown origin) expressed in baculovirus expression system using synthetic RNA 5'P-uacacucgaucuggacuaaagcugcuc-3' and SAM as substrate preincubated for 10 mins followed by substrate addition and measured after 60 mins by RF/MS analysis
[5] = tested on: MOLM-13; test: Antiproliferative activity against human MOLM-13 cells assessed as decrease cell proliferation; type: functional, cell-based
[6] = target: T1, METTL3/METTL14; test: Inhibition of METTL3/METTL14 (unknown origin); type: protein-complex assay
[7] = target: T1, METTL3/METTL14; test: Inhibition of METTL3/METTL14 (unknown origin) using biotinylated RNA (UCUGGACUAAA-biotin) and 3H-SAM as substrate preincubated for 5 mins followed by substrate addition and measured after 30 mins by scintillation counter analysis; type: protein-complex assay
[8] = tested on: MOLM-13; test: Antiproliferative activity against human MOLM-13 cells assessed as inhibition of cell proliferation incubated for 96 hrs by Cell Titer-Glo reagent assay; type: functional, cell-based; details: MOLM-13, 96 h
[9] = target: T2, N6-adenosine-methyltransferase catalytic subunit (Homo sapiens, UniProt Q86U44); test: Inhibition of METTL3 in human MOLM-13 cells assessed as decrease in cellular m6A mRNA level incubated for 24 hrs by NanoDrop spectrophotometer based LC-MS/MS analysis; type: cell-based
[10] = tested on: MOLM-13; test: Antiproliferative activity against human MOLM-13 cells assessed as inhibition of cell proliferation incubated for 48 hrs by Cell Titer-Glo reagent assay; type: functional, cell-based; details: MOLM-13, 48 h
[11] = target: T2, N6-adenosine-methyltransferase catalytic subunit
[12] = target: T1, METTL3/METTL14; test: Inhibition of METTL3/METTL14 (unknown origin) using RNA 5'-GGACUGGACUGGACU-3' as substrate incubated for 2 hrs by LC-MS/MS analysis; type: protein-complex assay
[13] = tested on: Huh-7; test: cells; details: Homo sapiens, Huh-7, 72 h
[14] = tested on: MIA PaCa-2; test: cells; details: Homo sapiens, MIA PaCa-2, 72 h
[15] = tested on: Caov-3 cell line; test: Antiproliferative activity against human Caov-3 cell line assessed as inhibition of cell proliferation and measured after 7 days by CellTiter-Glo assay; type: functional, cell-based; details: Caov-3, 168 h
[16] = tested on: MOLM-13; test: Antiproliferative activity against human MOLM-13 cells assessed as inhibition of cell proliferation and measured after 7 days by CellTiter-Glo assay; type: functional, cell-based; details: MOLM-13, 168 h
[17] = Selectivity ratio of IC50 for inhibition of METTL3/METTL14 (unknown origin) to IC50 for inhibition of FLT3 (unknown origin)
[18] = Selectivity ratio of IC50 for inhibition of METTL3/METTL14 (unknown origin) to IC50 for inhibition of PRMT5/MEP50 (unknown origin)
[19] = target: METTL3/METTL14 (Homo sapiens) (UniProt Q86U44+Q9HCE5); test: Inhibition of METTL3/METTL14 (unknown origin) at 60 uM relative to control; type: protein-complex assay

SMILES: Nc1ncnc2c1ccn2[C@@H]1C[C@H](c2ccc3cc(CN4CCC5(CCC5)C4)[nH]c3c2)[C@@H](O)[C@H]1O (single isomer, unassigned)
- IC50 [1]: 0.95 µM
- IC50 [2]: 0.25 µM

SMILES: Nc1ncnc2c1ncn2C[C@H]1OC[C@@H](O)[C@@H](O)[C@H]1O
- IC50 [3]: > 250 µM

SMILES: Clc1cc(-c2cn(Cc3cn4cc(CNCC5CCC5)ccc4n3)nn2)c2cn[nH]c2c1
- IC50 [4]: 0.00435 µM

SMILES: CNc1ccc2ccc(OC[C@H]3O[C@@H](n4cc([C@@H]5CCCO5)c5c(N)ncnc54)[C@@H](F)[C@@H]3O)cc2n1
- IC50 [7]: < 0.01 µM
- IC50 [8]: < 10 µM
- IC50 [9]: < 1 µM
- IC50 [10]: < 10 µM

SMILES: COc1cc(-c2cn(Cc3cn4cc(CNCC56CC(C5)C6)ccc4n3)nn2)c2cncn2c1
- IC50 [1]: 0.419 µM
- IC50 [2]: 0.11 µM

SMILES: O=c1c(O)c(-c2ccc(O)c(O)c2)oc2cc(O)cc(O)c12 [QUERCETIN]
- IC50 [12]: 2.73 µM
- IC50 [13]: 100 µM
- IC50 [14]: 73.5 µM

SMILES: COc1ccc2[nH]ncc2c1-c1cn(Cc2cn3cc(CNCC4CCC4)ccc3n2)nn1
- IC50 [15]: 0.558 µM
- IC50 [16]: 1.17 µM

SMILES: Cn1ccc(-c2cn([C@@H]3O[C@H](C(=O)Nc4ccc5ccc(N6CCC6)nc5c4)[C@@H](O)[C@@H]3F)c3ncnc(N)c23)n1
- Ratio IC50 [17]: > 100
- IC50 [7]: < 0.01 µM
- Ratio IC50 [18]: > 100

SMILES: O=C(NCc1cn2cc(CNCC34CC(F)(C3)C4)ccc2n1)c1cc(=O)n2ccccc2n1
- IC50 [15]: 0.248 µM
- IC50 [16]: 0.657 µM

SMILES: COc1cc(-c2cn(Cc3cn4cc(CNCC56CC(F)(C5)C6)ccc4n3)nn2)c2cncn2c1
- IC50 [1]: 1.15 µM
- IC50 [2]: 0.305 µM

SMILES: Nc1ncnc2c1ncn2[C@@H]1O[C@H](C(=O)NCC2CCNCC2)[C@@H](O)[C@H]1O (single isomer, unassigned)
- IC50 [3]: > 250 µM

SMILES: O=C(O)[C@H]1O[C@@H](Oc2cc3oc(-c4ccc(O)cc4)cc(=O)c3c(O)c2O)[C@H](O)[C@@H](O)[C@@H]1O [SCUTELLARIN]
- IC50 [12]: 19.2 µM

SMILES: COc1cc(-c2cn(Cc3cn4cc(CNCC5CCC5)ccc4n3)nn2)c2cncn2c1
- IC50 [1]: 0.316 µM
- IC50 [2]: 0.103 µM

Results, then the compound that gave them:

- EC50 [5]: 26.9 µM
- IC50 [6]: 3.13 µM
SMILES: O=C(O)c1ccccc1OCCc1cn(-c2ccc(-c3ccc(Cl)cc3)cc2)c2ccc(-c3ccc(F)cc3)cc12

- IC50 [7]: < 0.01 µM
- IC50 [8]: < 10 µM
- IC50 [9]: < 1 µM
SMILES: CCc1cc(NCCOC)c2ccc(CCc3cncc(-n4cc(-c5ccn(C)n5)c5c(N)ncnc54)c3)cc2n1

- IC50 [6]: 6 µM
SMILES: O=C(O)c1ccccc1OCCc1cn(C(c2ccccc2)c2ccccc2)c2ccc(-c3ccc(F)cc3)cc12

- Kd [11]: 0.00479 µM
SMILES: COc1cc2c(cc1Cc1cccc(Cl)c1F)c(=O)c(C(=O)O)cn2[C@H](CO)C(C)C

- IC50 [6]: 8.63 µM
SMILES: O=C(O)c1ccccc1OCCc1cn(C(c2ccccc2)c2ccccc2)c2ccc(-c3ccccc3)cc12

- IC50 [7]: < 0.01 µM
- IC50 [9]: < 1 µM
- IC50 [10]: < 1 µM
SMILES: CNc1ccc2ccc(CCc3cncc(-n4cc(-c5ccn(C)n5)c5c(N)ncnc54)c3)cc2n1

- IC50 [6]: 17.3 µM
SMILES: Cc1c(CCOc2ccc(C(=O)O)cc2)c2cc(Cl)ccc2n1C(c1ccccc1)c1ccccc1

- inhibition [19]: 23.7%
SMILES: COC(=O)c1cccc(-c2cccc(N/N=C3\C(=O)N(c4ccc(C)c(C)c4)N=C3C)c2O)c1
